Experimental data: patent US20250034165A1, “COMPOUND CONTAINING CYCLOALKYL OR HALOALKYL” (CHIA TAI TIANQING PHARMACEUTICAL GROUP CO., LTD., priority 2021, published 2025)
pIC50: −log10 of the molar value. Where two headings read alike, the source gives them in different places.

What was measured:
[1] = target: EGFR (d746-750/T790M/C797S) (Homo sapiens (Human), UniProt P00533, C797S/DEL746-750/T790M); experiment: Inhibitory activity for EGFR (d746-750/T790M/C797S) kinase; assay type: biochemical; settings: ATP 5 μM; read-out: EGFR(d19/T790M/C797S) (IC50)
Method: 1.5 Screening for Inhibitory Activity for EGFR (d746-750/T790M/C797S) Kinase
(§1) A 50 ng/μL EGFR (d746-750/T790M/C797S, BPS) stock solution was diluted with a kinase buffer (50 mM HEPES, 10 mM MgCl2, 2 mM DTT, 1 mM EGTA, 0.01% Tween 20), and 6 μL of 1.67× working solution at 0.05 ng/μL (final concentration: 0.03 ng/μL) was added to each well. Different compounds dissolved in DMSO were added to the wells using a nanoliter pipettor, resulting in the final concentrations of the compounds of 10 nM to 0.0024 nM (4-fold gradient for 7 concentrations in total), and blank control wells (without enzyme) and negative control wells (with enzyme, plus vehicle DMSO) were set, 2 replicate wells for each concentration. After enzyme was reacted with the compound or vehicle for 30 min, 5×ATP at 25 μM (final concentration: 5 μM, Sigma) prepared with a kinase buffer was mixed with 5× substrate at 0.5 μM (final concentration: 0.1 μM, ULight-poly GT, PerkinElmer) at a ratio of 1:1 (v:v), and the mixture was added to each well at 4 μL/well. After being sealed with a film, the plate was incubated at room temperature for 2 h, and then 5 μL of 4×EDTA at 40 mM (final concentration: 10 mM) was added to each well. After the plate was incubated for 5 min at room temperature, 5 μL of 4× detection reagent at 8 nM (final concentration: 2 nM, Eu-anti-phospho-tyrosine antibody, PerkinElmer) was added to each well. After being incubated at room temperature for 1 h, the plate was read using a PerkinElmer Envision multi-mode microplate reader (excitation: 320 nm, emission: 665 nm), and IC50 was calculated by four-parameter fitting.

[2] = target: EGFR (d746-750 (d19)/T790M) (Homo sapiens (Human), UniProt P00533, DEL746-750/T790M); experiment: Inhibitory activity for EGFR (d746-750 (d19)/T790M) kinase; assay type: biochemical; settings: ATP 5 μM
Method: 1.3 Screening for Inhibitory Activity for EGFR (d746-750 (d19)/T790M) Kinase
as §1, with “(d746-750/T790M, Carna)” for “(d746-750/T790M/C797S, BPS)”, “0.005” for “0.05”, “0.003” for “0.03”

[3] = test system: BAF3-EGFR (del19/T790M/C797S) cells; experiment: Inhibition of proliferation of BAF3-EGFR (Del19/T790M/C797S) cells, CCK-8; assay type: cell-based; settings: Ba/F3 EGFR-Del19/T790M/C797S, 72 h, read-out: BAF3(EGFR T790M Del19 C797S) cell inhibitory activity IC50
Method: (§2) A flask of BAF3-EGFR (del19/T790M/C797S) cells in the logarithmic growth phase and good conditions was taken, and the cells were collected and added to a centrifuge tube. 20 μL of cells were taken and counted, and the required number of cells (mL) was pipetted and centrifuged at 1200 rpm for 3 min. The supernatant was discarded, and an appropriate amount of plating medium (RPMI medium+10% FBS) was added to adjust the cell density to 1.0×10^5 cells/mL. The cells were seeded on a 96-well plate at 100 μL/well using a multi-channel pipette and cultured in a cell incubator at 37° C., 5% CO2 with saturated humidity. After overnight incubation, compounds were loaded using a nanoliter pipettor, 2 duplicate wells were set for each concentration, and cells without compound added were used as negative controls.
(§3) Inhibition rate (%)=(mean value of negative control group-mean value of experimental group)/(mean value of negative control group−mean value of blank group)×100%.
(§4) A dose-response curve was fitted by four-parameter analysis, with the logarithm of compound concentration serving as abscissa and inhibition rate serving as ordinate, such that IC50 was calculated.

[4] = test system: PC-9 EGFR-Del19-T790M-C797S cells; experiment: Inhibition of proliferation of PC-9-EGFR (Del19 T790M C797S) cells, CCK-8; assay type: cell-based; settings: 72 h, read-out: PC-9-EGFR (Del19 T790M C797S) cell inhibitory activity IC50
Method: PC-9 EGFR-Del19-T790M-C797S cells in the logarithmic growth phase and good conditions were taken, washed with PBS, digested with pancreatin, terminated with a complete medium, collected and added to a centrifuge tube, adjusted to a cell density of 2×10^4 cells/mL, and seeded in a 96-well plate (100 μL/well). Meanwhile, compounds were loaded using a nanoliter pipettor resulting in the final concentrations of the compounds of 1000 nM-0.06 nM, and a control was set, replicate wells for each concentration. After 72 h of incubation in the cell incubator, the assay reagent CCK-8 (manufacturer: Dojindo Laboratories, Beijing; 10 μL/well) was added. After 2 h of incubation in the cell incubator, absorbance was measured at 450 nm on a PerkinElmer Envision microplate reader, and the inhibition rate was calculated.
as §3, §4

[5] = test system: BAF3-EGFR (L858R/T790M/C797S) cells; experiment: Inhibition of proliferation of BAF3-EGFR (L858R/T790M/C797S) cells, CCK-8; assay type: cell-based; settings: Ba/F3 EGFR, 72 h, read-out: BAF3(EGFR T790M L858R C797S) cell inhibitory activity IC50
Method: as §2, with “EGFR (L858R/T790M/C797S)” for “BAF3-EGFR (del19/T790M/C797S)”, “1.5×10^5” for “1.0×10^5”
as §3, §4

[6] = In vivo pharmacokinetics in ICR mice; settings: for AUC(0-inf) / AUC(0-t) / MRT last / half-life / bioavailability / Cmax / Tmax: mouse, plasma; for AUC(0-t): read-out: AUC(0-t); for MRT last: read-out: MRT(0-t); for half-life: read-out: T½ (converted); for bioavailability: 10 mg/kg, PO vs IV; for Cmax: read-out: Cmax; for Tmax: read-out: Tmax
Method: The animals to be tested (ICR mice) were fasted for 12 h before administration and food was provided 4 h after administration, and water was freely drunk before and after the experiment and during the experiment.
After intragastric administration, about 0.1 mL of blood was collected from the orbit at 0 min, 15 min, 30 min, 1 h, 2 h, 4 h, 6 h, 8 h, 10 h, and 24 h. After anticoagulation with EDTA-K2, blood samples were transferred to a centrifuge within 30 min, and centrifuged at 4000 rpm for 10 min at 4° C. to separate the plasma. All the plasma samples were collected and immediately stored at −20° C. for testing.
300 μL of acetonitrile solution containing an internal standard ([…] diazepam) was added to 20 μL of the plasma sample to be tested and a standard curve sample. The mixture was shaken and homogeneously mixed for 5 min, and centrifuged at 12,000 rpm for 10 min. 70 μL of supernatant was taken and diluted with 70 μL of ultrapure water. After being mixed well, 2 μL of the resulting sample was subjected to LC/MS/MS, and a chromatogram was recorded.

Sequence of EGFR (d746-750 (d19)/T790M) (P00533 other isoform, or with tags, fused parts or gaps T790M/del 1-668/del 746-750 limits assumed): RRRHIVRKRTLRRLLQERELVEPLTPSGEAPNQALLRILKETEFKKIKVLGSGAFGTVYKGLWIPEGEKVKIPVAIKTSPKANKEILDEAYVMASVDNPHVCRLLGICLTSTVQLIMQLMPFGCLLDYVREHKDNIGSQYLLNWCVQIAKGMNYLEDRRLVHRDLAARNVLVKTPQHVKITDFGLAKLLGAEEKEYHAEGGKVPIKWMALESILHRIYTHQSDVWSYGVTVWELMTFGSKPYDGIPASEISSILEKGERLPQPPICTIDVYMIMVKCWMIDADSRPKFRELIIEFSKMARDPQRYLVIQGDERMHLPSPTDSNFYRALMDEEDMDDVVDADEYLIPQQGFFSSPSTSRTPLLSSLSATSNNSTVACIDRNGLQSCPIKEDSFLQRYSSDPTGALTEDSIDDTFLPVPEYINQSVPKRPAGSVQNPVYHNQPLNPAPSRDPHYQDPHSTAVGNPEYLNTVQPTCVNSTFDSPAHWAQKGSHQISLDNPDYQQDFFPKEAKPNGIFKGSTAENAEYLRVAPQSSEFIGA
Sequence of EGFR (d746-750/T790M/C797S) (P00533 other isoform, or with tags, fused parts or gaps T790M/C797S/del 1-694/del 746-750 limits assumed): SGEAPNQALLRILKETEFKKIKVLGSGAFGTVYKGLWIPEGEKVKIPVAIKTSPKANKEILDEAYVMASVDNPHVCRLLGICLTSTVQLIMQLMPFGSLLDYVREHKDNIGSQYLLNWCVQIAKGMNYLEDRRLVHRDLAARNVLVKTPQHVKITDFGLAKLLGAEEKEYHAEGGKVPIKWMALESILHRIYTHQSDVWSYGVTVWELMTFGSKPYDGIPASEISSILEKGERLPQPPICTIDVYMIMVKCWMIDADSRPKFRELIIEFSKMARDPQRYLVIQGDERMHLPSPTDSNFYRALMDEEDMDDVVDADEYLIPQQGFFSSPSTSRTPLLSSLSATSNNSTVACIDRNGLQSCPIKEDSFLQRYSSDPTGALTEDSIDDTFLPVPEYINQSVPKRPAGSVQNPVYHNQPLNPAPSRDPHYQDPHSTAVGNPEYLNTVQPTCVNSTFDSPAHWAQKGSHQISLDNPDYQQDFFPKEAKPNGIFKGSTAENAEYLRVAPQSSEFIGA

Row | Compound | pIC50 [1] | pIC50 [2] | pIC50 [3] | pIC50 [5] | other results
1 | Cc1cc2cc(n1)-c1cnn(C)c1OCCC[C@@H](C1CC1)CN1/C(=N/C2=O)Nc2cc(NC(C)C3COC3)ccc21 (some centres unmarked) [Example 37] | 10.66 | 10.89 | > 9.00 | > 8.30 | pIC50 [4]: > 7.30
2 | Cc1cc2cc(n1)-c1cnn(C)c1OCCC[C@@H](C1CC1)CN1/C(=N/C2=O)Nc2cc(NCCN(C)C)ccc21 [Example 42] | 10.92 | 11.12 | > 9.00 | > 8.30 | 
3 | CCN1CCC(Nc2ccc3c(c2)N2C[C@H](C4CC4)CCCOc4c(cnn4C)-c4cc(cc(C)n4)C(=O)/N=C/2N3)CC1 [Example 55] | 10.70 | 10.85 | > 9.00 | > 8.30 | pIC50 [4]: > 7.30
4 | Cc1cc2cc(n1)-c1cnn(C)c1OCCC[C@@H](C1CC1)CN1/C(=N/C2=O)Nc2ccc(NCCCN(C)C)cc21 [Example 27] | 10.57 | 10.72 | > 9.00 | > 8.30 | 
5 | Cc1cc2cc(n1)-c1cnn(C)c1OCCC[C@@H](C1CC1)CN1/C(=N/C2=O)Nc2cc(NC(C)CN(C)C)ccc21 (some centres unmarked) [Example 62] | 10.66 | 10.89 | > 9.00 | > 8.30 | 
6 | Cc1cc2cc(n1)-c1cnn(C3CC3)c1OCCC[C@@H](C)CN1/C(=N/C2=O)Nc2ccc(NCCN(C)C)cc21 [Example 17] | 10.85 | 10.92 | > 9.00 | > 8.30 | 
7 | Cc1cc2cc(n1)-c1cnn(C)c1OCCC[C@@H](C1CC1)CN1/C(=N/C2=O)Nc2ccc(OCCN(C)C)cc21 [Example 11] | 10.62 | 10.60 | > 9.00 | > 8.30 | 
8 | Cc1cc2cc(n1)-c1cnn(C)c1OCCC[C@@H](C1CC1)CN1/C(=N/C2=O)Nc2ccc(NCCN)cc21 [Example 58] | 10.82 | 11.03 | > 9.00 | > 8.30 | 
9 | Cc1cc2cc(n1)-c1cnn(C)c1OCCC[C@@H](C1CC1)CN1/C(=N/C2=O)Nc2cc(NCC3CCOCC3)ccc21 [Example 22] | 10.52 | 10.74 | > 9.00 | > 8.30 | 
10 | Cc1cc2cc(n1)-c1cnn(C)c1OCCC[C@@H](C1CC1)CN1/C(=N/C2=O)Nc2cc(NCC3COC3)ccc21 [Example 36] | 10.66 | 10.82 | > 9.00 | > 8.30 | 

Further lines, with some results ahead:

Row | pIC50 [1] | pIC50 [2] | pIC50 [3] | pIC50 [5] | Compound | other results
11 | 10.70 | 11.07 | > 9.00 | > 8.30 | Cc1cc2cc(n1)-c1cnn(C)c1OCCC[C@@H](C1CC1)CN1/C(=N/C2=O)Nc2ccc(NCCN3CCCC3)cc21 [Example 82] | pIC50 [4]: > 7.30
12 | 10.77 | 10.89 | > 9.00 | > 8.30 | Cc1cc2cc(n1)-c1cnn(C)c1OCCC[C@@H](C1CC1)CN1/C(=N/C2=O)Nc2ccc(NCCN3CCCCC3)cc21 [Example 83] | 
13 |  |  | > 9.00 | > 8.30 | Cc1cc2cc(n1)-c1cnn(C)c1OCCC[C@@H](C1CC1)CN1/C(=N/C2=O)Nc2cc(NCCCN3CCOCC3)ccc21 [Example 74] | CLz ([6]; IV): 70.5 mL/min/kg; AUC(0-inf) ([6]; 1 mg/kg, IV): 236 ng·h/mL; AUC(0-t) ([6]; 1 mg/kg, IV): 233 ng·h/mL; MRT last ([6]; 1 mg/kg, IV): 1.35 h; half-life ([6]; 1 mg/kg, IV): 1.84 h; bioavailability [6]: 35.4%; AUC(0-inf) ([6]; PO, 10 mg/kg intragastric): 830 ng·h/mL; AUC(0-t) ([6]; PO, 10 mg/kg intragastric): 824 ng·h/mL; Cmax ([6]; PO, 10 mg/kg intragastric): 97.6 ng/mL; MRT last ([6]; PO, 10 mg/kg intragastric): 6.42 h; Tmax ([6]; PO, 10 mg/kg intragastric): 0.5 h; half-life ([6]; PO, 10 mg/kg intragastric): 3.18 h; pIC50 [4]: > 7.30
14 |  |  | > 9.00 | > 8.30 | CCC1(Nc2ccc3c(c2)N/C2=N\C(=O)c4cc(C)nc(c4)-c4cnn(C)c4OCCC[C@@H](C4CC4)CN23)COC1 [Example 90] | CLz ([6]; IV): 37.8 mL/min/kg; AUC(0-inf) ([6]; 1 mg/kg, IV): 441 ng·h/mL; AUC(0-t) ([6]; 1 mg/kg, IV): 441 ng·h/mL; MRT last ([6]; 1 mg/kg, IV): 1.65 h; half-life ([6]; 1 mg/kg, IV): 1.58 h; bioavailability [6]: 68.4%; AUC(0-inf) ([6]; PO, 10 mg/kg intragastric): 3020 ng·h/mL; AUC(0-t) ([6]; PO, 10 mg/kg intragastric): 3010 ng·h/mL; Cmax ([6]; PO, 10 mg/kg intragastric): 352 ng/mL; MRT last ([6]; PO, 10 mg/kg intragastric): 6.47 h; Tmax ([6]; PO, 10 mg/kg intragastric): 0.5 h; half-life ([6]; PO, 10 mg/kg intragastric): 2.46 h
